How the values were obtained:
CLK3 kinase = CLK3 kinase (Homo sapiens, UniProt P49761); experiment: CLK3 kinase activity assay (Z-lyte FRET); type: biochemical; details: Z-lyte Ser/Thr 18 peptide, 156 μM ATP, 1 h at room temperature;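 note: kinase activity read as coumarin/fluorescein emission ratio by FRET, unphosphorylated peptide as 0% and phosphorylated peptide as 100% control, values from non-linear regression of dose-response curves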
CLK2 kinase = CLK2 kinase (Homo sapiens, UniProt P49760); experiment: CLK2 kinase activity assay (Z-lyte FRET); type: biochemical; details: Z-lyte Ser/Thr 6 peptide, 60 μM ATP, 1 h at room temperature;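 note: FRET read-out as coumarin to fluorescein emission ratio, unphosphorylated peptide as 0% and phosphorylated peptide as 100% controls, duplicate reactions, non-linear regression fit of dose-response curves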
[1] = test system: MMP-3 levels in supernatant of chondrocytes stimulated with IL1-β; experiment: Chondrocyte protection assay compound screening (MMP-3 LANCE Ultra); type: cell-based, human; details: Homo sapiens, Chondrocyte, IL1-β 10 ng/mL overnight, 11-point curves from 3 μM to 0.05 nM; for Emax: read-out: Maximum % Inhibition
Outline: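 Primary human chondrocytes (passage 2–5) in differentiation medium were stimulated with 10 ng/mL IL1-β for an overnight incubation at 37 °C. MMP-3 in 1:7-diluted supernatant was read by TR-FRET immunoassay against a standard curve, normalised to IL1-β-stimulated wells; EC50 and maximum % inhibition came from nonlinear regression.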

[2] = test system: Wnt pathway activity (SW480 colon carcinoma cells stably expressing the Sp5-Luc reporter); experiment: Wnt pathway activity screening assay (Sp5-Luc reporter gene assay); details: Homo sapiens
[3] = test system: primary human mesenchymal stem cells (hMSCs); experiment: Chondrogenesis screening using primary human mesenchymal stem cells; type: cell-based; details: Homo sapiens, Mesenchymal stem cells, hMSC chondrogenesis; for EC50: concentration required to induce 50% levels of chondrogenesis with TGF-β3 as positive control, read-out: Conc (nM) of 50% TGF-β3 activity; for Emax: maximum activity relative to TGF-β3 (10 ng/mL) positive control, read-out: Max. Activity as % TGF-β3 activity
Outline: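 Derived values are EC50 for 50% chondrogenesis, maximal activity and the dose giving it. These come from nodule area in passage 3–6 primary hMSCs, expressed as fold change over the mean of 3 same-plate DMSO wells, 2–3 replicates per concentration. TGF-β3 served as positive control.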

[4] = SW480, Table 4, SW480 cells stably expressing Sp5-Luc reporter, 10-point dose-response from 10 μM, 36 to 48 hours

CLK3 kinase, sequence (P49761 whole entry): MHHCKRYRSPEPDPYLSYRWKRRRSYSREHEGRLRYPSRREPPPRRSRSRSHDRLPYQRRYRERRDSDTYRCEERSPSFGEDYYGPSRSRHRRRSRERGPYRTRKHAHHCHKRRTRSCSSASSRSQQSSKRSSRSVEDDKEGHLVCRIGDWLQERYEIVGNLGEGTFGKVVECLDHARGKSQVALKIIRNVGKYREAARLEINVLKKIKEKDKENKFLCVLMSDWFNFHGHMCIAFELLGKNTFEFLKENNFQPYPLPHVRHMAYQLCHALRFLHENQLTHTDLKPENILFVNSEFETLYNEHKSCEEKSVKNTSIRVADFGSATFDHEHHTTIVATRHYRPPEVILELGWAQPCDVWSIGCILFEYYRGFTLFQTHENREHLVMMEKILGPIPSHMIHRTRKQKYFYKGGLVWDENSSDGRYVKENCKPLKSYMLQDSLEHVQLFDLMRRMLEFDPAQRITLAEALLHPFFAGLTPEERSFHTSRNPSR
CLK2 kinase, sequence (P49760 whole entry): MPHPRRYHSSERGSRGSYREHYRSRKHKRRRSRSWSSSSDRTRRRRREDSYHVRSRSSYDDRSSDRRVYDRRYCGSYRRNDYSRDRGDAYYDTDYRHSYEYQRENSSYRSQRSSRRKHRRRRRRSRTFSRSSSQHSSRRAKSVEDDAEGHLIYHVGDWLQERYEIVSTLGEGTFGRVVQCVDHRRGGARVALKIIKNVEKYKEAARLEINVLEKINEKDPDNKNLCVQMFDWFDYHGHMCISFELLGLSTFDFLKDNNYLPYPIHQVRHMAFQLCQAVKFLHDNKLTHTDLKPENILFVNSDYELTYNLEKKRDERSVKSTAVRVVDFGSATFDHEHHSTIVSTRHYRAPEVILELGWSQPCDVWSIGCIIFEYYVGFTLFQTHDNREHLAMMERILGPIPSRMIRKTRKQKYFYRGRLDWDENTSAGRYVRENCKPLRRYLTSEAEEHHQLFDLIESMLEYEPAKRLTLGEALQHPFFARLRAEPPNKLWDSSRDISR

Row | EC50 (CLK3 kinase) | EC50 (CLK2 kinase) | EC50 [2, 4] | EC50 [3] | SMILES | EC50 [1] | Emax [1] | Emax [3] | EC50 ([2]; SW480)
1 | 492 nM | 1 nM | 82.1 nM | 2700 nM | Fc1cccc(-c2cccc3[nH]c(-c4n[nH]cc4/C=C/c4cncc(CN5CCCC5)c4)nc23)c1 [compound 26] | 1.4 nM | 64.6% | 81.7% | –
2 | 9840 nM | 10 nM | 464 nM | – | CC(C)OCCCNC(=O)c1n[nH]c2ccc(-c3cccnc3)cc12 [compound 58] | 10.8 nM | 61.1% | 92.5% | –
3 | 4020 nM | 13 nM | 47.1 nM | 2700 nM | CC(C)NC(=O)c1n[nH]c2ccc(-c3cncc(CN4CCC(F)(F)CC4)c3)cc12 [compound 75] | 8 nM | 95.1% | 104% | –
4 | 55 nM | 1 nM | 79 nM | – | CN1CCC(n2cc(NC(=O)c3n[nH]c4ccc(-c5cnn(C)c5)cc34)cn2)CC1 [compound 106] | 818 nM | 100% | 23.6% | –
5 | 90 nM | 1 nM | 242 nM | – | Cn1cc(-c2cc3c(C(=O)Nc4ccc(CN5CCCC5)cc4)n[nH]c3cc2F)cn1 [compound 107] | ≥ 3000 nM | 22.9% | 27.4% | –
6 | 18 nM | 3 nM | 10 nM | – | CN(C)C(=O)Nc1cncc(-c2cnc3[nH]nc(-c4nc5c(-c6cccc(F)c6)cncc5[nH]4)c3c2)c1 [compound 130] | 40.6 nM | 60.5% | 68.1% | –
7 | 24 nM | 4 nM | 4 nM | 30 nM | CC(C)C(=O)Nc1cncc(-c2ccc3[nH]nc(-c4nc5c(-c6ccccc6F)cncc5[nH]4)c3c2)c1 [compound 173] | ≥ 3000 nM | 90.2% | 102% | –
8 | 26 nM | 8 nM | 12 nM | 100 nM | CC(C)CC(=O)Nc1cncc(-c2ccc3[nH]nc(-c4nc5c(-c6cccnc6)cncc5[nH]4)c3c2)c1 [compound 189] | 111 nM | 100% | 198% | –
9 | 58 nM | 4 nM | 42 nM | – | CCCC(=O)Nc1cncc(-c2ccc3[nH]nc(-c4nc5c(N6CCCCC6)cncc5[nH]4)c3c2)c1 [compound 208] | 20.5 nM | 39% | 77.3% | –
10 | 26 nM | 1 nM | 85.7 nM | 30 nM | CN1CCN(c2nccc3[nH]c(-c4n[nH]c5cc(F)c(-c6cnn(C)c6)cc45)nc23)CC1 [compound 219] | 35.5 nM | 87.3% | 113% | –
11 | 61 nM | 1 nM | 23 nM | – | c1cncc(-c2ccc3[nH]nc(-c4nc5c(N6CCOCC6)cncc5[nH]4)c3c2)c1 [compound 220] | 13.6 nM | 100% | 90.4% | –
12 | 263 nM | 3 nM | > 10000 nM | 100 nM | Cc1cn(-c2cncc3[nH]c(-c4n[nH]c5ccc(-c6cncc(NC(=O)C(C)(C)C)c6)nc45)nc23)cn1 [compound 222] | 1150 nM | 64.9% | 150% | –
13 | 128 nM | 1 nM | 48 nM | 30 nM | CN(C)Cc1cncc(-c2cnc3[nH]nc(-c4nc5c(-c6cccs6)cncc5[nH]4)c3c2)c1 [compound 260] | ≥ 3000 nM | – | 146% | –
14 | 20 nM | 1 nM | 45.5 nM | 10 nM | Cc1ccc(-c2nccc3[nH]c(-c4n[nH]c5ccc(-c6cncc(N)c6)nc45)nc23)s1 [compound 275] | ≥ 3000 nM | 58.4% | 72.6% | –
15 | 25 nM | 1 nM | 1660 nM | 300 nM | CC(C)Nc1cncc(-c2ccc3[nH]nc(-c4nc5c(-c6cc(F)cc(NCCN(C)C)c6)cncc5[nH]4)c3n2)c1 [compound 284] | ≥ 3000 nM | 32.9% | 96.8% | –
16 | 13 nM | 1 nM | > 10000 nM | – | CC(C)CC(=O)Nc1cncc(-c2cc3c(-c4nc5c(-c6cc(F)cc(OCCN7CCCC7)c6)cncc5[nH]4)n[nH]c3cn2)c1 [compound 298] | ≥ 3000 nM | 23.2% | 20.3% | –
17 | 214 nM | 2 nM | 3730 nM | 10 nM | CCNCc1cncc(-c2cc3c(-c4cc5c(-c6cccnc6)cncc5[nH]4)n[nH]c3cn2)c1 [compound 367] | ≥ 3000 nM | 75.7% | 67.6% | –
18 | 69 nM | 3 nM | > 10000 nM | – | O=C(Nc1cncc(-c2cnc3[nH]nc(-c4cc5c(-c6ccncc6)cncc5[nH]4)c3c2)c1)C1CCC1 [compound 394] | 17.9 nM | 90.4% | 43.5% | –
19 | 48 nM | 2 nM | > 10000 nM | – | O=C(CC1CCNCC1)Nc1cncc(-c2ccc3[nH]nc(-c4cc5c(N6CCCCC6)nccc5[nH]4)c3n2)c1 [compound 462] | 1470 nM | 99.9% | 21.8% | –
20 | 142 nM | 3 nM | 3290 nM | – | CN1CCN(c2cncc3[nH]c(-c4n[nH]c5ccc(-c6cncc(CNCc7ccccc7)c6)cc45)cc23)CC1 [compound 490] | 329 nM | 80.2% | 101% | –
21 | 51 nM | 2 nM | > 10000 nM | – | CCNCc1cncc(-c2cnc3[nH]nc(-c4cc5c(-c6cc(F)cc(CNS(C)(=O)=O)c6)cncc5[nH]4)c3c2)c1 [compound 533] | ≥ 3000 nM | 40.8% | 42.8% | –
22 | 11 nM | 1 nM | 9.5 nM | 2700 nM | O=C(Nc1cc2cc(-c3cncc(NC4CCNC[C@@H]4F)n3)ccc2cn1)C1CC1 (some centres unmarked) [compound 603] | ≥ 3000 nM | 55.5% | 68% | –
23 | 29 nM | 2 nM | 51.8 nM | 50 nM | O=C1CCc2cccc(c2)-c2cncc3[nH]c(nc23)-c2n[nH]c3ccc(cc23)-c2cncc(c2)N1 [compound 619] | ≥ 3000 nM | 71.5% | 225% | –
24 | 16 nM | 3 nM | 86.8 nM | 100 nM | O=C1COc2cccc(c2)-c2cncc3[nH]c(nc23)-c2n[nH]c3ccc(cc23)-c2cncc(c2)N1 [compound 620] | 37.4 nM | 37.1% | 185% | –
25 | 26 nM | 3 nM | 338 nM | 10 nM | CN1CCCn2cc(nn2)-c2nccc3[nH]c(nc23)-c2n[nH]c3ccc(cc23)-c2cncc(c2)C1 [compound 621] | ≥ 3780 nM | 46.5% | 181% | –
26 | 36 nM | 5 nM | > 10000 nM | 30 nM | O=C1CCc2cccc(c2)-c2cncc(c2)NC(=O)c2n[nH]c3ccc(cc23)-c2cncc(c2)CN1 [compound 622] | 10 nM | 83.8% | 69.4% | –
27 | 10 nM | 2 nM | 284 nM | 30 nM | CN1CCN(c2cc(Nc3ncc4c(-c5ccc6ncccc6c5)c[nH]c4n3)ccn2)CC1 [compound 623] | ≥ 9980 nM | 89.5% | 73.4% | –

Row | SMILES | EC50 (CLK3 kinase) | EC50 (CLK2 kinase) | EC50 [2, 4] | EC50 [3] | EC50 [1] | Emax [1] | Emax [3] | EC50 ([2]; SW480)
28 | O=C(Nc1cccnc1)c1n[nH]c2ccc(-c3cncc(CN4CC5CC(C4)O5)c3)cc12 [compound 101] | 44 nM | 1 nM | – | 900 nM | ≥ 3000 nM | 45.7% | 121% | 67 nM
29 | CC(C)Oc1ccc(NC(=O)c2n[nH]c3ccc(-c4cncc(CN5CC6CC(C5)O6)c4)cc23)cn1 [compound 102] | 88 nM | 2 nM | – | 30 nM | 0.2 nM | 26.3% | 75.7% | 61 nM

— patent US20230000842A1, “METHODS OF TREATING CARTILAGE DISORDERS THROUGH INHIBITION OF CLK AND DYRK” (SAMUMED, LLC, priority 2019, published 2023)
